Results as given in patent US4113957A, “1-Substituted pyrazoles” (Bayer Aktiengesellschaft, priority 1975, dated 1978).

Test system: venous thrombs (left jugular vein)
Assay: Antithrombotic action: thromb formation in supercooled jugular vein of rats
Assay type: in vivo
Conditions: Rattus norvegicus, po, 10 mg/kg orally, reduction of thromb size vs control, after 4 hours
Experimental: The left jugular vein of rats weighing 170 to 180 g was exposed under ether narcosis and supercooled to -12° C. for 2 minutes to stimulate thromb formation. The thromb was isolated from the vein 4 hours later, and was weighed. The test animals were given the test preparation in tragacanth mucilage immediately before supercooling the wall of the blood vessel. As a result, the protective antithrombotic activity was tested in the first 4 hours after stimulating thromb formation.

With `Cc1cc(OC(=O)c2ccco2)n(CCOc2ccc3ccccc3c2)n1` [Example 20, 5-(Furyl-(2)-carbonyloxy)-3-methyl-1-(2-(β-naphthyloxy)-ethyl)-pyrazole] the inhibition at 10 mg/kg was 61%.
